Reference: patent US9018203B2, “Pharmaceutical composition of salicylanilide-derived small molecules and preparation and application thereof” (National Defense Medical Center, priority 2012, dated 2015)

Key:
[1] = MTT cell viability assay in RAW 264.7 cells; format: cell-based, murine; details: mouse; for CC50 at 24 hr: read-out: Cell viability: CC50 (cytotoxic concentration that produces 50% cell survival); for viability at 24 hr, 10 µM: 10 μM compound, read-out: Cell viability: Survival rate at 10 μM (%)
Method: (§1) Cell viability was measured by MTT assay in RAW 264.7 cells upon treatment with 10 μM compounds for 24 hr. CC50 (the cytotoxic concentration that produces 50% cell survival) were identified in this example.

[2] = test system: RAW 264.7 cells; assay: MTT cell viability assay in RAW 264.7 cells; format: cell-based, murine; details: 24 hr; for Cell viability: Survival rate at 10 μM (%): 10 μM compound; for CC50: read-out: Cell viability: CC50 (cytotoxic concentration that produces 50% cell survival)
Method: as §1

[3] = test system: RAW 264.7 cells; assay: TRAP staining and activity assay of RANKL-induced osteoclastogenesis; format: cell-based, murine; details: 10 μM compound; for Osteoclastogenesis: TRAP+ MNCS at 10 μM (%): 100 ng/mL RANKL, 5 days, relative to RANKL without drug; for Inhibitory activity on osteoclastogenesis (in words) / Inhibition of osteoclast differentiation, TRAP staining (FIG. 1 C, D, E): RANKL
Method: The murine RAW 264.7 cell was an osteoclast precursor cell. RAW 264.7 cells were cultured in DMEM (Gibco BRL), 10% FBS, Penicillin (100 U/L), Streptomycin (100 U/L), 5% CO2, 37° C. To induce the murine RAW 264.7 cells differentiation, the cells were cultured in 96-well culture dish 10^4 cell per dish with α-MEM, 10% FBS, 2 mM L-glutamate, Penicillin (100 U/L), Streptomycin (100 U/L), with or without 100 ng/mL RANKL for 5 days, and added or not added tested drug, replaced the fresh medium at 3 day. The cells were TRAP^+ stained and analyzed the activity, then washed the cells by PBS and fixed by 3.7% formaldehyde for 30 minutes, then washed by PBS. The cells were reacted in Leukocyte Acid Phosphatase Assay kit (Sigma) at 37° C. for 1 hr, and washed by distilled water for three times and counted the multinucleated cells numbers by microscopy.
After treatment with RANKL and 10 μM compounds in RAW 264.7, the osteoclasts were counted percentage of the TRAP^+ cells (TRAP^+ MNCS %, the denominator was the number of cells which was treated with RANKL but without drug, and the numerator was the number of cells which was treated with RANKL and drug).

[4] = test system: RAW 264.7 cells; assay: Pit formation assay (bone resorption); format: cell-based, murine; details: RANKL, 10 μM compound
Method: In pit formation assay, RAW 264.7 cells were cultured in DMEM (Gibco BRL) 10% FBS, Penicillin (100 U/L), streptomycin (100 U/L), 5% CO2 at 37° C. To induce the murine RAW 264.7 cell differentiation, the cells were cultured in 96-well culture dish 10^4 cell per dish with α-MEM, 10% FBS, 2 mM L-glutamate, Penicillin (100 U/L), Streptomycin (100 U/L), with or without 100 ng/mL RANKL for 5 days in the present or absent tested drug, replaced the fresh medium at 3 day. The 24-well plate were washed by PBS and added in 0.5 mL/well chloride solution, stood at room-temperature for 10 minutes for destroying the cell, then stained with 0.1% Toluidine Blue 0.5 mL/well, and washed by distilled water for three times and photographed under microscopy.

| SMILES | melting point | CC50 at 24 hr [1] | Cell viability: Survival rate at 10 μM (%) [2] | Osteoclastogenesis: TRAP+ MNCS at 10 μM (%) [3] | Inhibitory activity on osteoclastogenesis (in words) [3] | viability at 24 hr, 10 µM [1] | Bone resorption, erosion of bone slices (FIG. 2 C, D) [4] | CC50 [2] | Inhibition of osteoclast differentiation, TRAP staining (FIG. 1 C, D, E) [3] |
| --- | --- | --- | --- | --- | --- | --- | --- | --- | --- |
| O=C(O)c1ccccc1O [Salicylic acid, reference compound] |  | > 40 µM |  |  | did not perform significant inhibitory activity |  |  |  |  |
| COc1ccc(C(=O)Nc2ccc(Cl)cc2F)c(OCc2ccc(F)cc2F)c1 [compound 2c, N-(4-chloro-2-fluorophenyl)-2-((2,4-difluorobenzyl)oxy)-4-methoxybenzamide] | 134 to 135 °C | > 40 µM | 107.3 ± 4.4% | 68.7 ± 4.6% |  |  |  |  |  |
| O=C(Nc1ccc(Cl)cc1F)c1ccccc1O [compound 1a, N-(4-chloro-2-fluorophenyl)-2-hydroxybenzamide] | 184 to 185 °C | 21.3 ± 3.4 µM |  | 49.4±5.4% |  | 93 ± 3.1% |  |  |  |
| COc1ccc(C(=O)Nc2ccc(Cl)cc2F)c(O)c1 [compound 2a, N-(4-chloro-2-fluorophenyl)-2-hydroxy-4-methoxybenzamide] | 186 to 187 °C |  | 103.0 ± 2.8% | 23.8±3.4% |  |  | the resorption hole was reduced | 32.3 ± 4.9 µM | significant inhibition of differentiation |
| COc1ccc2c(=O)n(-c3ccc(Cl)cc3F)c(=O)oc2c1 [compound 2d, 3-(4-chloro-2-fluorophenyl)-7-methoxy-2H-benzo[e][1,3]oxazine-2,4(3H)-dione] | 203 to 204 °C | > 40 µM | 100.5 ± 2.4% | 36.0±1.8% |  |  |  |  | significant inhibition of differentiation |
| COc1ccccc1C(=O)Nc1ccc(Cl)cc1F [compound 1b, N-(4-chloro-2-fluorophenyl)-2-methoxybenzamide] | 111 to 112 °C | > 40 µM | 101.8 ± 4.5% | 86.0 ± 9.9% |  |  |  |  |  |
| COc1ccc(C(=O)Nc2ccc(Cl)cc2F)c(OC)c1 [compound 2b, N-(4-chloro-2-fluorophenyl)-2,4-dimethoxybenzamide] | 155 to 156 °C |  | 52.9 ± 2.8% | 60.2 ± 3.6% |  |  |  | 13.6 ± 1.2 µM |  |
| O=C(Nc1ccc(Cl)cc1F)c1ccccc1OCc1ccc(F)cc1F [compound 1c, N-(4-chloro-2-fluorophenyl)-2-((2,4-difluorobenzyl)oxy)benzamide] | 121 to 122 °C | > 40 µM | 107.2 ± 4.5% | 74.6 ± 6.2% |  |  |  |  |  |
| O=c1oc2ccccc2c(=O)n1-c1ccc(Cl)cc1F [compound 1d, 3-(4-chloro-2-fluorophenyl)-2H-benzo[e][1,3]oxazine-2,4(3H)-dione] |  | > 40 µM | 97.9 ± 2.0% | 3.4±2.1% |  |  | the resorption hole was reduced |  | significant inhibition of differentiation |
| COc1ccc(C(=O)O)c(O)c1 [2-hydroxy-4-methoxy-benzoic acid, reference compound] |  | > 40 µM | 99.4 ± 7.6% | 79.6 ± 8.3% | did not perform significant inhibitory activity |  |  |  |  |

More lines, main results first:

| melting point | SMILES | CC50 at 24 hr [1] | Cell viability: Survival rate at 10 μM (%) [2] | Osteoclastogenesis: TRAP+ MNCS at 10 μM (%) [3] | Inhibitory activity on osteoclastogenesis (in words) [3] | viability at 24 hr, 10 µM [1] | Bone resorption, erosion of bone slices (FIG. 2 C, D) [4] | CC50 [2] | Inhibition of osteoclast differentiation, TRAP staining (FIG. 1 C, D, E) [3] |
| --- | --- | --- | --- | --- | --- | --- | --- | --- | --- |
| 86 to 87 °C | COc1ccccc1C(=O)Nc1ccc(F)cc1F [compound 3b, N-(2,4-difluorophenyl)-2-methoxybenzamide] | > 40 µM | 108.5 ± 4.0% | 89.1 ± 5.1% |  |  |  |  |  |
| 135 to 136 °C | O=C(Nc1ccc(F)cc1F)c1ccccc1OCc1ccc(F)cc1F [compound 3c, 2-((2,4-difluorobenzyl)oxy)-N-(2,4-difluorophenyl)benzamide] | > 40 µM | 101.1 ± 3.2% | 97.6 ± 6.0% |  |  |  |  |  |
| 138 to 139 °C | COc1ccc2c(=O)n(-c3ccc(F)cc3F)c(=O)oc2c1 [compound 4d, 3-(2,4-difluorophenyl)-7-methoxy-2H-benzo[e][1,3]oxazine-2,4(3H)-dione] | > 40 µM |  | 87.9 ± 9.1% |  | 102 ± 9.1% |  |  |  |
| 138 to 139 °C | COc1ccc(C(=O)Nc2ccc(F)cc2F)c(OC)c1 [compound 4b, N-(2,4-difluorophenyl)-2,4-dimethoxybenzamide] | > 40 µM | 102.5 ± 9.3% | 93.0 ± 7.7% |  |  |  |  |  |
| 131 to 132 °C | COc1ccc(C(=O)Nc2ccc(F)cc2F)c(OCc2ccc(F)cc2F)c1 [compound 4c, 2-((2,4-difluorobenzyl)oxy)-N-(2,4-difluorophenyl)-4-methoxybenzamide] | > 40 µM | 106.0 ± 8.8% | 66.2 ± 8.1% |  |  |  |  |  |
| 186 to 187 °C | O=C(Nc1ccc(F)cc1F)c1ccccc1O [compound 3a, N-(2,4-difluorophenyl)-2-hydroxybenzamide] | > 40 µM |  | 85.9 ± 6.2% |  | 104 ± 3.6% |  |  |  |
| 180 to 181 °C | COc1ccc(C(=O)Nc2ccc(F)cc2F)c(O)c1 [compound 4a, N-(2,4-difluorophenyl)-2-hydroxy-4-methoxybenzamide] | > 40 µM |  | 41.3±8.6% |  | 105 ± 4.7% |  |  |  |
| 182 to 183 °C | O=c1oc2ccccc2c(=O)n1-c1ccc(F)cc1F [compound 3d, 3-(2,4-difluorophenyl)-2H-benzo[e][1,3]oxazine-2,4(3H)-dione] | > 40 µM |  | 69.8 ± 7.7% |  | 105 ± 6.3% |  |  |  |
